Literature values as cited in patent US8772346B2, “Pharmaceutical composition” (Torrent Pharmaceuticals Limited, priority 2005, dated 2014).
Where two headings read alike, the source gives them in different places.

Settings: HP-β-CD (10% w/v)

increase of aqueous solubility of entacapone by complexation with HP-β-CD (pH 3.0): 12 fold
increase of aqueous solubility of entacapone by complexation with HP-β-CD (pH 5.0): 85 fold
Compound: CCN(CC)C(=O)/C(C#N)=C/c1cc(O)c(O)c([N+](=O)[O-])c1 [entacapone]
